{"source": "paper PMC12022909", "about": "“A Multicomponent Reaction-Based Platform Opens New Avenues in Aryl Hydrocarbon Receptor Modulation” (ACS Central Science, 2025)", "tested_on": "IL-19, CXCL1, and CCL26 gene expression", "assay": "IL-13 triggered proinflammatory gene expression in HaCaT keratinocytes", "assay_type": "cell-based, human", "details": "IL-13 10 ng/mL", "excerpt": "As AhR activation is beneficial for pathologies including chronic inflammatory skin diseases,[74] we assessed the potential anti-inflammatory role of our ligands by cotreating HaCaT keratinocytes with the proinflammatory cytokine IL-13 and a selection of 6-ICZs (Figure 7a).\nFigure 7 Anti-inflammatory effect of the 6-ICZs. (a) Structure of the tested compounds and the control tapinarof (T). (b) IL-13 triggered gene expression of proinflammatory IL-19, CXCL1, and CCL26 expressed as fold of 0.1% DMSO control. HaCaT keratinocytes were treated with IL-13 (10 ng/mL) for 24 h, then either untreated (−) or treated with positive control T (1 μM) or 6-ICZs (1 μM). n = 3–4. For statistical analysis an unpaired t-test was performed and data are shown as mean ± SEM (*, p ≤ 0.05 compared to IL-13 (10 ng/mL)).\nCell culture and treatment\nHuman HaCaT and HaCaT-AhR-deficient keratinocytes were cultured in DMEM low glucose (1 g/l) medium (PAN Biotech, Aidenbach, Germany) supplemented with 10% (v/v) fetal bovine serum (PAN Biotech) and 1% (v/v) antibiotics/antimycotics (PAN Biotech). […]\nQuantitative real-time PCR\nThe isolation of total RNA, reverse transcription, and quantitative real-time PCR was conducted as described previously.[26] […]\nAhR-dependent reporter gene activity was determined in human HepG2 cells stably transfected with an XRE -harboring luciferase plasmid (XRE-HepG2 cells). […]"}
{"molecule": "CCOc1c2[nH]c3ccccc3c2cc2[nH]c3ccccc3c12", "note": "[compound 8, 6-ethoxy-ICZ]", "values": [{"measurement": "anti-inflammatory potency compared with positive control tapinarof", "setting": "1 μM", "value": "slightly more potent than the positive control tapinarof"}, {"measurement": "IL-13-triggered induction of IL-19, CXCL1, and CCL26 gene expression", "setting": "24 h, compound 1 μM", "value": "significantly reduced"}]}
